Results on seven compounds are retold here after patent US20050080260A1, “Preparation of prodrugs for selective drug delivery” (priority 2003, published 2005).

Where two headings read alike, the source gives them in different places. Marks after values point to notes of the source that are not given here.

For one data set, the system named is Ba-L strain of HIV-1. The data set can be described thus: Anti-HIV-1 potency in macrophage assay (p24 ELISA). It is filed as cell-based, HIV-1 in human monocyte/macrophages. To be noted: for IC50: Human immunodeficiency virus 1, BAL, Macrophage. Here is the method:
(§1) Evaluation of Prodrug Anti-HIV-1 Potency in Macrophage Assay. The anti HIV-1 evaluation of the carriers and their conjugates was performed in 6-day old monocyte/macrophages at Southern Research Institute, Frederick, Md. Briefly, peripheral blood monocytes were isolated from normal HIV-1 negative donors by plastic adherence following ficoll hypaque purification of the buffy coats. The monocytes were then cultured for 6 days to a macrophage-like phenotype. The test compounds were serially diluted and added to the cultures followed by the addition of a pretitered amount of the Ba-L strain of HIV-1 obtained from the NIAID AIDS Research and Reference Reagent Repository. Cultures were washed by media removal 24 hours post infection, fresh compound added and the cultures continued for an additional 6 days. HIV p24 antigen content to assess virus replication was measured by p24 ELISA assay. AZT and ddc were used as positive control compounds and run in parallel with each determination. […] At assay termination, the assay plates were stained with the tetrazolium based dye MTS to determine cell viability and quantify compound toxicity. Using a computer program at Southern Research Institute, IC50 (50% inhibition of virus replication), TC50 (50% cytotoxicity) and a therapeutic index (TI, […]) were obtained.
In general terms: An ELISA detects its analyte on a solid surface through an enzyme-linked reagent.

The nature of data set [1]: Toxicity on replicate uninfected macrophage plates (MTS cell viability). The following applies: human, uninfected macrophages, MTS, read-out: TC50 (50% cytotoxicity). It is filed as cell-based, human. Here is the method:
as §1

Data set [2] relates to Friends Leukemia Virus (FLV). In words: Anti-retroviral potency in a murine model (FLV-infected mice, spleen and body weight). It is filed as in vivo, Swiss mice. The following applies: for Average Final Weight / Average Weight Change / Average Spleen Weight: FLV-infected four-week old Swiss mice, 300 nanomoles on days 5-9, sacrificed day 12; for Average Spleen Weight: p < 0.01 for MTLJ-1-Foscarnet; for weight gain: FLV-infected mice, treated group. How it is done:
(§2) Evaluation Foscarnet Prodrug Anti-Retroviral Potency in a Murine Model. The effect of prodrug MTLJ-1-Foscarnet on four-week old Swiss mice infected with Friends Leukemia Virus (FLV) was tested by the Luminide Pharmaceutical Corporation. The mice were infected with FLV by an IP injection with 0.5 ml viral solution prepared by resuspending F4-6 cells (1×10^6 cells/ml) in fresh media and harvesting that media 24 hr later and filtering through a […] filter. The Foscarnet Group received 300 nanomoles of Foscarnet on days 5-9. The Carrier Group received 300 nanomoles of carrier on days 5-9. The MTLJ-1-Foscarnet Group received 300 nanomoles of MTLJ-1-Foscarnet on days 5-9. All mice were sacrificed on day 12. The spleens were removed and weighed. The toxicity of the carrier MTLJ-1 was also evaluated by the determination of its LD50.

A further data set deals with monocyte/macrophages. The data set can be described thus: Toxicity on replicate uninfected macrophage plates (MTS cell viability). Type of data set: cell-based, human. To be noted: Southern Research Institute tests, TABLES 7-9. How it is done:
as §1

A short description of data set [3]: Acute toxicity, determination of LD50. Type of data set: in vivo. How it is done: as §2
Where [4] appears, read: TABLE 7 (negative control carrier test, Southern Research Institute), HIV-1 Ba-L, human macrophages, p24 antigen, read-out: IC50 (50% inhibition of virus replication).
The mark [5] stands for this setting: TABLE 9 (6a carrier and Foscarnet prodrug, Southern Research Institute), HIV-1 Ba-L, human macrophages, p24 antigen, read-out: IC50 (50% inhibition of virus replication).
[6] abbreviates: TABLE 7 (negative control carrier test).
Setting [7] is: TABLE 9 (6a carrier and Foscarnet prodrug).
The mark [8] stands for this setting: TABLE 8 (6a carrier and ddc prodrug, Southern Research Institute), HIV-1 Ba-L, human macrophages, p24 antigen, read-out: IC50 (50% inhibition of virus replication).
Setting [9] is: TABLE 10, Southern Research Institute under NIH contract, HIV-1 in human macrophages, read-out: IC50.
[10] abbreviates: TABLE 10, Southern Research Institute under NIH contract.

As a reminder, the IC50 is the concentration that gives 50% inhibition. `O=C([O-])P(=O)([O-])[O-].[Na+].[Na+].[Na+]` [Foscarnet, phosphonoformate, reference compound]: the IC50 with Ba-L strain of HIV-1 (setting [4]) amounted to 0.55 µM. The IC50 in the data set on Ba-L strain of HIV-1 (setting [5]) came to 1.83 µM. In the data set on Ba-L strain of HIV-1 (setting [6]), the “TI (TC50/IC50)” value is greater than 18. In the data set on Ba-L strain of HIV-1 (setting [7]), the “TI (TC50/IC50)” value is reported as greater than 182.08. Moreover, the CC50 at 7 days in data set [1] (setting [6]) is greater than 10 µM. Also, in data set [1] (setting [7]), the CC50 at 7 days is greater than 333 µM. Moreover, in data set [2], the “Average Final Weight” value came out at 18.9 g, the “Average Weight Change” value is “+1.5 g”, the “Average Spleen Weight” value amounted to 0.1727 g and the weight gain is 1.5 grams.

As to `Nc1ccn([C@H]2CC[C@@H](CO)O2)c(=O)n1` [ddc, dideoxycytidine, reference compound], in the data set on Ba-L strain of HIV-1, the “TI (TC50/IC50)” value was >2,500. In addition, the results for the IC50 in the data set on Ba-L strain of HIV-1 (setting [8]) and in the data set with Ba-L strain of HIV-1 (setting [9]) were 0.07 µM and 0.04 µM, respectively.

In the case of `CCN(c1ccc(/C(=C/C=C/C(=C2C=CC(=[N+](CC)c3ccc4c(=O)[nH][nH]c(=O)c4c3)C=C2)c2ccc(N(C)C)cc2)c2ccc(N(C)C)cc2)cc1)c1ccc2c(=O)[nH][nH]c(=O)c2c1` [6a], the IC50 was greater than 100 µM with Ba-L strain of HIV-1 (setting [8]), 23.1 µM with Ba-L strain of HIV-1 (setting [5]) and 2.62 µM in the data set on Ba-L strain of HIV-1 (setting [9]). Also, the “TI (TC50/IC50)” value is on record as greater than 4.48 with Ba-L strain of HIV-1 (setting [7]) and greater than 38.2 in the data set with Ba-L strain of HIV-1 (setting [10]). In addition, the CC50 at 7 days in data set [1] (TABLE 8 (6a carrier and ddc prodrug)) is greater than 100 µM; in data set [1] (setting [7]), greater than 104 µM. Besides, the “Toxicity in macrophage assay (in words)” value in the data set on monocyte/macrophages is reported as “nontoxic”.

Take `CCN(c1ccc(/C(=C/C=C/C(=C2C=CC(=[N+](CC)c3ccc4c(=O)[nH][nH]c(=O)c4c3)C=C2)c2ccccc2)c2ccccc2)cc1)c1ccc2c(=O)[nH][nH]c(=O)c2c1` [GZW1-98-2]: the IC50 in the data set on Ba-L strain of HIV-1 (setting [9]) was determined as 23.1 µM. For the same compound, the “TI (TC50/IC50)” value in the data set with Ba-L strain of HIV-1 (setting [10]) is recorded as greater than 4.3.

As usually defined, the LD50 is the dose at which mortality reaches 50%. A lower LD50 goes with greater toxicity. Regarding `CCCC(NCCN(CC)c1ccc(/C(=C/C=C/C(OP(=O)(O)C(=O)O)(c2ccc(N(C)C)cc2)c2ccc(N(CC)CCNC(CCC)N(CC)c3ccc4c(=O)[nH][nH]c(=O)c4c3)cc2)c2ccc(N(C)C)cc2)cc1)N(CC)c1ccc2c(=O)[nH][nH]c(=O)c2c1` (stereo not drawn) [MTLJ-1-Foscarnet], in data set [2] (FLV-infected Swiss mice), the “Spleen weights compared with control groups (in words)” value is reported as “the same as those of the No Virus, No Treatment Group”. In addition, in data set [2] (FLV-infected Swiss mice, significance level of 0.01, Students T test), the “Suppression of FLV infection in mice (in words)” value is listed as “highly effective”. For the same compound, in data set [2], the “Average Final Weight” value worked out at 22.4 g, the “Average Weight Change” value is listed as “+2.5 g”, the “Average Spleen Weight” value was 0.0914^a g and the weight gain came out at 2.5 grams. Also, the “Toxicity in vivo (in words)” value in data set [3] (from LD50 and weight gain) is recorded as “nontoxic”. The LD50 in data set [3] (mouse, in vivo, ip) was greater than 1250 mg/kg.

With `CCN(c1ccc(/C(=C/C=C/C=C2C=CC(=[N+](C)C)C=C2)c2ccc(N(C)C)cc2)cc1)c1ccc2c(=O)[nH][nH]c(=O)c2c1` [GZW2-33-1], the IC50 in the data set on Ba-L strain of HIV-1 (setting [9]) was determined as 18.9 µM. Also, the “TI (TC50/IC50)” value with Ba-L strain of HIV-1 (setting [10]) was greater than 5.3.

Consider `CCCCc1ccc(C(/C=C/C=C(\c2ccc(CCCC)cc2)c2ccc(OCCN(CC)c3ccc4c(=O)[nH][nH]c(=O)c4c3)cc2)=C2C=CC(=[O+]CCN(CC)c3ccc4c(=O)[nH][nH]c(=O)c4c3)C=C2)cc1` [YY99811-1], for which the IC50 in the data set on Ba-L strain of HIV-1 (setting [4]) was greater than 10 µM. Also, in data set [1] (setting [6]), the CC50 at 7 days is greater than 10 µM. Moreover, the “Toxicity in macrophage assay (in words)” value in the data set on monocyte/macrophages is recorded as “nontoxic”.
